Results reported in US5547941A, “Cyclic dinucleoside diphosphorothioates, related compounds and pharmaceutical compositions” (priority 1991, dated 1996).
Where a name gives a salt, the structure may show the parent alone.

How the values were obtained:
HIV [1] = assay: Anti-HIV activity on the protein level: viral core protein p24 in supernatant of HIV-infected mitogen-stimulated human lymphocytes (ELISA); assay type: cell-based, HIV (in peripheral human lymphocytes); conditions: for HIV p24 in supernatant: 10 μM; for inhibition at 10 µM: Human immunodeficiency virus 1, Lymphocyte
Procedure: (§1) The compounds of the present invention were tested for antiviral activity on peripheral human lymphocytes isolated by density gradient centrifugation and stimulated with a mitogen.
(§2) Infection was performed with a standardized preparation of HIV and cells, cultured in the presence of the drug for 4 days.
Individual cultures were established to measure viral replication 2, 3 and 4 days after infection. The amount of viral core protein P 24, synthesized and released by the infected cells, was determined in the supernatant of treated and untreated cells on days 2, 3 and 4 by an Elisa.
(§3) The antiviral effect induced by the tested compounds was calculated from the inhibition of the evaluated parameters (i.e.: P24 or RNA) as compared with infected controls.

HIV [2] = assay: Anti-HIV activity on the RNA level: viral RNA synthesized by HIV-infected human lymphocytes (nucleic acid hybridization); assay type: cell-based, HIV (in peripheral human lymphocytes); conditions: for HIV RNA: 10 μM; for inhibition at 10 µM: Human immunodeficiency virus 1, Lymphocyte
Procedure: as §1, §2
The total amount of viral RNA synthesized by the infected lymphocytes was determined on day 2, 3 and 4 by a nucleic acid hybridization technique. By including a standard preparation of HIV-RNA, the amount of synthesized RNA was quantified.
as §3

[3] = system: peripheral human lymphocytes; assay: Cytotoxicity (10 μM stated to be non cytotoxic); assay type: cell-based
[4] = system: snake venom phosphodiesterase; assay: Enzymatic hydrolysis of the deprotected dinucleotide thiophosphates by snake venom phosphodiesterase (HPLC substrate disappearance); assay type: biochemical, Crotalus durissus; conditions: for Substrate change on enzymatic hydrolysis (in words) / Reduction in the area of the HPLC peak relatively to the control: 37° C., pH 8
Procedure: The two samples XIIa and XIIb can independently undergo an enzymatic degradation by action of an exonuclease like snake venom phosphodiesterase following the disappearance of starting sample by HPLC along the time. […] Accordingly the configuration RP has to be assigned to XIIa and configuration SP to XIIb.
The relative susceptivity of the two substrates XIIa and XIIb to hydrolysis by snake venom phosphodiesterase was determined by incubating a solution (3 mM) of each substrate in Tris buffer (25 mM) containing MgCl2 (5 mM) at pH 8 with the enzyme (1 mg in 0.5 ml) (from Crotalus durissus) purchased from Boehringer and following the substrate disappearance by HPLC. In particular for each substrate a solution was prepared consisting of 700 μl of buffer, 200 μl of substrate solution plus 50 μl of enzyme solution. For each substrate a control was prepared with the same components and volumes except for the enzyme that was replaced by an equal volume of buffer. The four solutions (the two substrates and the two controls) were incubated at 37° C. taking aliquots from each solution at 0 time, 1 hour, 17 hours. Such aliquots were analyzed by HPLC (Whatman Partisphere C18, eluting with a linear gradient from 10% to 30% of methanol 0.1 M ammonium acetate) at 220 nm.

[5] = 72 h, Day 3, read-out: Inhibition of HIV replication on the protein level
[6] = 96 h, Day 4, read-out: Inhibition of HIV replication on the protein level
[7] = 72 h, Day 3, read-out: Inhibition of HIV replication on the RNA level
[8] = 96 h, Day 4, read-out: Inhibition of HIV replication on the RNA level

Nc1ccn([C@H]2C[C@@H]3O[P@](O)(=S)OC[C@H]4O[C@@H](n5ccc(N)nc5=O)C[C@@H]4O[P@](O)(=S)OC[C@H]3O2)c(=O)n1 [Compound IIa, Cyclo-2'-deoxy-(RP)-P-thiocytidylyl-(3'→5')-2'-deoxy-(RP)-P-thiocytidylyl-(3'→5'), sodium salt]
HIV p24 in supernatant (HIV [1]; Day 2): 0.0 ng p24/ml
HIV p24 in supernatant (HIV [1]; Day 3, control 2.2 ng p24/ml): 0.1 ng p24/ml
HIV p24 in supernatant (HIV [1]; Day 4, control 21.5 ng p24/ml): 17.1 ng p24/ml
inhibition at 10 µM (HIV [1]; [5]): 97%
inhibition at 10 µM (HIV [1]; [6]): 20%
HIV RNA (HIV [2]; Day 2): 0 pg RNA/ml
HIV RNA (HIV [2]; Day 3, control 226 pg RNA/ml): 188 pg RNA/ml
HIV RNA (HIV [2]; Day 4, control 612 pg RNA/ml): 465 pg RNA/ml
inhibition at 10 µM (HIV [2]; [7]): 17%
inhibition at 10 µM (HIV [2]; [8]): 24%

Nc1ccn([C@H]2C[C@@H]3O[P@@](O)(=S)OC[C@H]4O[C@@H](n5ccc(N)nc5=O)C[C@@H]4O[P@](O)(=S)OC[C@H]3O2)c(=O)n1 [Compound IIb, Cyclo-2'-deoxy-(SP)-P-thiocytidylyl-(3'→5')-2'-deoxy-(RP)-P-thiocytidylyl-(3'→5'), sodium salt]
Cytotoxicity [3]: non cytotoxic
HIV p24 in supernatant (HIV [1]; Day 2): 0.0 ng p24/ml
HIV p24 in supernatant (HIV [1]; Day 3, control 2.2 ng p24/ml): 0.0 ng p24/ml
HIV p24 in supernatant (HIV [1]; Day 4, control 21.5 ng p24/ml): 3.7 ng p24/ml
inhibition at 10 µM (HIV [1]; [5]): 100%
inhibition at 10 µM (HIV [1]; [6]): 83%
HIV RNA (HIV [2]; Day 2): 0 pg RNA/ml
HIV RNA (HIV [2]; Day 3, control 226 pg RNA/ml): 0 pg RNA/ml
HIV RNA (HIV [2]; Day 4, control 612 pg RNA/ml): 266 pg RNA/ml
inhibition at 10 µM (HIV [2]; [7]): 100%
inhibition at 10 µM (HIV [2]; [8]): 56%

Nc1ccn([C@H]2C[C@H](O[P@@](O)(=S)OC[C@H]3O[C@@H](n4ccc(N)nc4=O)C[C@@H]3O)[C@@H](CO)O2)c(=O)n1 [XIIb, 2'-deoxy-(SP)-P-thiocytidylyl-(3'→5 '-2-deoxycytidinesodium salt]
Substrate change on enzymatic hydrolysis (in words) ([4]; after 1 hour): almost unchanged
Substrate change on enzymatic hydrolysis (in words) ([4]; after 17 hours): almost unchanged

Nc1ccn([C@H]2C[C@H](O[P@](O)(=S)OC[C@H]3O[C@@H](n4ccc(N)nc4=O)C[C@@H]3O)[C@@H](CO)O2)c(=O)n1 [XIIa, 2'-deoxy-(RP)-P-thiocytidylyl-(3'→5')-2'-deoxycytidine sodium salt]
Relative rate of enzymatic degradation ([4]; XIIa versus XIIb, snake venom phosphodiesterase): degraded much faster than the sample XIIb
Reduction in the area of the HPLC peak relatively to the control ([4]; after 1 hour): 50%
Reduction in the area of the HPLC peak relatively to the control ([4]; after 17 hours): 72%
